Among the data in US9822103B2, “Inhibitors of lysine methyl transferase” (priority 2013, dated 2017) are IC50 values, retold here.

Sequence of recombinant EZH2-641F complex (EZH2 Y641F/EED/SUZ12/RbAp48/AEBP2) (Q15910 whole entry Y641F): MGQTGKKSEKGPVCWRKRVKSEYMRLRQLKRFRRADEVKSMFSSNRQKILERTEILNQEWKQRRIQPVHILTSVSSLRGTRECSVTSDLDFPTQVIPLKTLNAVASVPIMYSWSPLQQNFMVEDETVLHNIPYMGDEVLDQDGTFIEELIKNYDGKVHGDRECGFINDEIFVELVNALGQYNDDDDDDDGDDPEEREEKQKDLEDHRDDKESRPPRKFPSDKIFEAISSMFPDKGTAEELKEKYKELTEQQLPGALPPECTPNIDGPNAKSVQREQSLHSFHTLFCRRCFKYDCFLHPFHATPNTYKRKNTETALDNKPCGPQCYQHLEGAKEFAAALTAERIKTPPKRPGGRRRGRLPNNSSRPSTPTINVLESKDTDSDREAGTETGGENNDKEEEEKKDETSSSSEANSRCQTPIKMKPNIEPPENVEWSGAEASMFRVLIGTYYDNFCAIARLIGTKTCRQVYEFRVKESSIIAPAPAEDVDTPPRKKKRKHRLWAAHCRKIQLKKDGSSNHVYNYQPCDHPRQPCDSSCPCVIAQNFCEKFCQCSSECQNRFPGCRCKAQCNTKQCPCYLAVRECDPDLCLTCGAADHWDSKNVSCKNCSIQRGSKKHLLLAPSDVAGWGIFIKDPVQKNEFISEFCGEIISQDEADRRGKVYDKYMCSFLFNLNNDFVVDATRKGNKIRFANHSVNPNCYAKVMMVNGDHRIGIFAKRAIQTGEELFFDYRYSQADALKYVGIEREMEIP
Sequence of recombinant EZH2-641F complex (EZH2 Y641F/EED/SUZ12/RbAp48/AEBP2) (O75530 whole entry partner): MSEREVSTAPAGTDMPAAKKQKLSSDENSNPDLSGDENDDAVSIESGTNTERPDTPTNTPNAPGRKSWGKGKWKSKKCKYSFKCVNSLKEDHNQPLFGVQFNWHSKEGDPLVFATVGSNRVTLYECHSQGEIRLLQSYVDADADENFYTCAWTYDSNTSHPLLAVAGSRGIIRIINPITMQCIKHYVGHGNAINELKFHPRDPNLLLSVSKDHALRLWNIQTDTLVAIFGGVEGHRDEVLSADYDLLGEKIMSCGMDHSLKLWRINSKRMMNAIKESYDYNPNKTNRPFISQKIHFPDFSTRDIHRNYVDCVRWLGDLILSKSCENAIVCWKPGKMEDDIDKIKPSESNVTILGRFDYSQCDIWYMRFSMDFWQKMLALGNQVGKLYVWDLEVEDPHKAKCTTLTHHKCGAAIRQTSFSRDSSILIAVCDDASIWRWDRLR
Sequence of recombinant EZH2-641F complex (EZH2 Y641F/EED/SUZ12/RbAp48/AEBP2) (Q15022 whole entry partner): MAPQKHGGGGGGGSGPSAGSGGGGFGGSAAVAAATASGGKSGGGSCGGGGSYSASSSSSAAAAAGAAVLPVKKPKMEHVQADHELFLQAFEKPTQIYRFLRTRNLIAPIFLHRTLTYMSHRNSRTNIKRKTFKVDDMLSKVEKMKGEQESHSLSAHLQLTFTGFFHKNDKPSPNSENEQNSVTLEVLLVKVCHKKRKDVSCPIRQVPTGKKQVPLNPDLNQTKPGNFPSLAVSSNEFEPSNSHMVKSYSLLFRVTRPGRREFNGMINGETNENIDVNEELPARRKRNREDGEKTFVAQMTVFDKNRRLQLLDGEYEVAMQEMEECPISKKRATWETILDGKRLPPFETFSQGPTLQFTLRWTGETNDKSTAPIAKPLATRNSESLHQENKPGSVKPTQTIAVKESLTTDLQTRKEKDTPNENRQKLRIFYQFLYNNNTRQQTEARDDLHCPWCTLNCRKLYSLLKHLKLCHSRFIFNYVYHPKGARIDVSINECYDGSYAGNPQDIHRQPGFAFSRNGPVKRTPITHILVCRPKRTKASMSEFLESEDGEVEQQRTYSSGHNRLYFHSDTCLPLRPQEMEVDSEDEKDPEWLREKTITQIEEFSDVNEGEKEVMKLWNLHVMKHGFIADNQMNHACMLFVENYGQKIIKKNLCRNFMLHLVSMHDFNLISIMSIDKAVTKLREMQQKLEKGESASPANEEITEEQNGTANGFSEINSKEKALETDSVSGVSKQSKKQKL
Sequence of recombinant EZH2-641F complex (EZH2 Y641F/EED/SUZ12/RbAp48/AEBP2) (Q09028 whole entry partner): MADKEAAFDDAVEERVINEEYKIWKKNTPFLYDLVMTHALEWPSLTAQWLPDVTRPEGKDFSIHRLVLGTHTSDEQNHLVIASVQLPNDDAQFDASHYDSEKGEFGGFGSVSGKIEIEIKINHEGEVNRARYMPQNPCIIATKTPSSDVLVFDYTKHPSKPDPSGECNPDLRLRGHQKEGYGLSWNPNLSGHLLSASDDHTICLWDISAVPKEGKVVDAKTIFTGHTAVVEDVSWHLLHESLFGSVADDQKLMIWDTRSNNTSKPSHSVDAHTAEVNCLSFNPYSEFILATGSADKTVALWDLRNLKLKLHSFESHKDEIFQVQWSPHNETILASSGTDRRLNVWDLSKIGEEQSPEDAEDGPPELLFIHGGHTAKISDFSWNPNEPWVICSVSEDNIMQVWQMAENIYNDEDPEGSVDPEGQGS
Sequence of recombinant EZH2-641F complex (EZH2 Y641F/EED/SUZ12/RbAp48/AEBP2) (Q6ZN18 whole entry partner): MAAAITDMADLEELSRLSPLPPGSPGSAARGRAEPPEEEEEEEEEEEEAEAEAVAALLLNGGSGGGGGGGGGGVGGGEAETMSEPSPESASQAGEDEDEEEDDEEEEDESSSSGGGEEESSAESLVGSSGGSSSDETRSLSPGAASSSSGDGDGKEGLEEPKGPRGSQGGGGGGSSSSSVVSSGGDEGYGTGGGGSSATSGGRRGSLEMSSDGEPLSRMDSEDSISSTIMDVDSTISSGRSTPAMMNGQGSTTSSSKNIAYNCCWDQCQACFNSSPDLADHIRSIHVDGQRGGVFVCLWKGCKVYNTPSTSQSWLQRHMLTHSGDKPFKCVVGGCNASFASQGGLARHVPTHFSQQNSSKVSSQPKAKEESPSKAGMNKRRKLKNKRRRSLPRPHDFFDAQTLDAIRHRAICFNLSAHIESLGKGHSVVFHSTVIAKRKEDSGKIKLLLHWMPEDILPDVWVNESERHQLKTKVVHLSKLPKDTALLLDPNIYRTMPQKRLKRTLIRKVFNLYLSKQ

This assay deals with recombinant EZH2-641F complex (EZH2 Y641F/EED/SUZ12/RbAp48/AEBP2) (Homo sapiens (Human), UniProt Q15910, Y641F). In words: EZH2 Histone Methyl Transferase Assay (scintillation proximity assay). Particulars: 350 nM histone peptide substrate, 500 nM 3H-SAM, 3 hours room temperature. The format is biochemical. How it is done:
EZH2 Histone Methyl Transferase Assay
The effectiveness of compounds of the present invention as inhibitors of histone methyl transferases can be readily tested by assays known to those skilled in the art. For example, in vitro histone methyl transferase assays may be conducted with a relevant purified histone methyl transferase and an appropriate synthetic substrate to determine the inhibitory activity of the compounds. Assays for inhibition of EZH2 by the instant compounds were performed in 384-well plates with reaction mixtures containing 350 nM of histone peptide substrate (ATKAAR-K(Me2)-SAPATGGVKKPHRYRPG-GK(Biotin), 500 nM S-[methyl-^3H]adenosyl-L-methionine (55-85 Ci/mmol), 50 mM Tris-HCl (pH 9.0), 50 mM NaCl, 1 mM dithiothreitol, Tween-20 at 0.01% and fatty-acid free bovine serum albumin at 0.01%, and recombinant EZH2-641F complex (EZH2 Y641F/EED/SUZ12/RbAp48/AEBP2) at 5 nM (>98% purity, BPS Bioscience) or 15 nM (50% purity, in-house). Reaction mixtures were incubated at room temperature for 3 hours, and the reactions were terminated by 0.005% poly-L-lysine solution in 20 mM Tris-HCl (pH 7.5) and 150 mM NaCl. Reaction products were captured by binding to strepavidin-conjugated imaging beads. Incorporation of radioactive methyl group into the histone peptide substrate was determined in Leadseeker (GE Healthcare) by means of scintillation proximity assay. Dose response curves were generated to determine the concentration required to inhibit 50% of methyl transferase activity (EC50). Compounds were dissolved at 10 mM in dimethylsulfoxide (DMSO) and evaluated at eleven concentrations. EC50 values were derived by non-linear regression analysis.
Take `COc1ccc(-c2cc(C(=O)NCc3c(C)cc(C)[nH]c3=O)cc3c2OC(C)C3)cn1` (stereo not shown) [Example 32, N-((4,6-Dimethyl-2-oxo-1,2-dihydropyridin-3-yl)methyl)-7-(6-methoxypyridin-3-yl)-2-methyl-2,3-dihydrobenzofuran-5-carboxamide]: the IC50 (commonly the concentration that gives 50% inhibition) was over 1000 nM.
Then `Cc1cc(C)c(CNC(=O)c2cc3c(c(-c4ccc(N5CCOCC5)nc4)c2)OC(C)C3)c(=O)[nH]1` (stereo not shown) [Example 33, N-((4,6-Dimethyl-2-oxo-1,2-dihydropyridin-3-yl)methyl)-2-methyl-7-(6-morpholinopyridin-3-yl)-2,3-dihydrobenzofuran-5-carboxamide], with over 1000 nM.
As for `Cc1cc(C)c(CNC(=O)c2cc3c(c(-c4ccc(N5CCNCC5)nc4)c2)OC(C)C3)c(=O)[nH]1` (stereo not shown) [Example 34, N-((4,6-Dimethyl-2-oxo-1,2-dihydropyridin-3-yl)methyl)-2-methyl-7-(6-(piperazin-1-yl)pyridin-3-yl)-2,3-dihydrobenzofuran-5-carboxamide], the IC50 is over 1000 nM.
On to `Cc1cc(C)c(CNC(=O)c2cc3c(c(-c4ccc(CN5CCOCC5)cc4)c2)OC(C)C3)c(=O)[nH]1` (stereo not shown) [Example 35, N-((4,6-Dimethyl-2-oxo-1,2-dihydropyridin-3-yl)methyl)-2-methyl-7-(4-(morpholinomethyl)phenyl)-2,3-dihydrobenzofuran-5-carboxamide], for which the IC50 was over 1000 nM.
For the molecule `COc1ccc(-c2cc(C(=O)NCc3c(C)cc(C)[nH]c3=O)cc3c2OCC3)cn1` [Example 36, N-((4,6-Dimethyl-2-oxo-1,2-dihydropyridin-3-yl)methyl)-7-(6-methoxypyridin-3-yl)-2,3-dihydrobenzofuran-5-carboxamide], the IC50 was over 1000 nM.
With `Cc1cc(C)c(CNC(=O)c2cc3c(c(-c4ccc(N5CCOCC5)nc4)c2)OCC3)c(=O)[nH]1` [Example 37, N-((4,6-Dimethyl-2-oxo-1,2-dihydropyridin-3-yl)methyl)-7-(6-morpholinopyridin-3-yl)-2,3-dihydrobenzofuran-5-carboxamide], the IC50 was over 1000 nM.
Regarding `Cc1cc(C)c(CNC(=O)c2cc3c(c(-c4ccc(N5CCNCC5)nc4)c2)OCC3)c(=O)[nH]1` [Example 38, N-((4,6-Dimethyl-2-oxo-1,2-dihydropyridin-3-yl)methyl)-7-(6-(piperazin-1-yl)pyridin-3-yl)-2,3-dihydrobenzofuran-5-carboxamide], the IC50 was over 1000 nM.
The figure for `Cc1cc(C)c(CNC(=O)c2ccc3c(c2)CCC(C)(C)O3)c(=O)[nH]1` [Example 41, N-((4,6-Dimethyl-2-oxo-1,2-dihydropyridin-3-yl)methyl)-2,2-dimethylchroman-6-carboxamide] is over 1000 nM.
In the case of `Cc1cc(C)c(CNC(=O)c2cc(Br)c3c(c2)CCC(C)(C)O3)c(=O)[nH]1` [Example 42, 8-Bromo-N-((4,6-dimethyl-2-oxo-1,2-dihydropyridin-3-yl)methyl)-2,2-dimethylchroman-6-carboxamide], the IC50 is over 1000 nM.
`COc1ccc(-c2cc(C(=O)NCc3c(C)cc(C)[nH]c3=O)cc3c2OC(C)(C)CC3)cn1` [Example 43, N-((4,6-Dimethyl-2-oxo-1,2-dihydropyridin-3-yl)methyl)-8-(6-methoxypyridin-3-yl)-2,2-dimethylchroman-6-carboxamide]: the IC50 was over 1000 nM.
As to `CC1=CCOc2c(Br)cc(C(=O)NCc3c(C)cc(C)[nH]c3=O)cc2C1` [Example 44, 9-Bromo-N-((4,6-dimethyl-2-oxo-1,2-dihydropyridin-3-yl)methyl)-4-methyl-2,5-dihydrobenzo[b]oxepine-7-carboxamide], the IC50 was over 1000 nM.
For `Cc1cc(C)c(CNC(=O)c2cc(Br)c3c(c2)CC(C)CCO3)c(=O)[nH]1` (stereo not shown) [Example 45, 9-Bromo-N-((4,6-dimethyl-2-oxo-1,2-dihydropyridin-3-yl)methyl)-4-methyl-2,3,4,5-tetrahydrobenzo[b]oxepine-7-carboxamide], the IC50 was over 1000 nM.
Consider `COc1ccc(-c2cc(C(=O)NCc3c(C)cc(C)[nH]c3=O)cc3c2OCCC(C)C3)cn1` (stereo not shown) [Example 46, N-((4,6-Dimethyl-2-oxo-1,2-dihydropyridin-3-yl)methyl)-9-(6-methoxypyridin-3-yl)-4-methyl-2,3,4,5-tetrahydrobenzo[b]oxepine-7-carboxamide], for which the concentration for half-maximal inhibition (IC50) is over 1000 nM.
With `Cc1cc(C)c(CNC(=O)c2ccc3c(c2)C=CCC(C)O3)c(=O)[nH]1` (stereo not shown) [Example 47, N-((4,6-Dimethyl-2-oxo-1,2-dihydropyridin-3-yl)methyl)-2-methyl-2,3-dihydrobenzo[b]oxepine-7-carboxamide], the IC50 was over 1000 nM.
For `Cc1cc(C)c(CNC(=O)c2ccc3c(c2)CCCC(C)O3)c(=O)[nH]1` (stereo not shown) [Example 48, N-((4,6-Dimethyl-2-oxo-1,2-dihydropyridin-3-yl)methyl)-2-methyl-2,3,4,5-tetrahydrobenzo[b]oxepine-7-carboxamide], the half-maximal inhibitory concentration (IC50) is over 1000 nM.
The figure for `Cc1cc(C)c(CNC(=O)c2cc(Br)c3c(c2)CCCC(C)O3)c(=O)[nH]1` (stereo not shown) [Example 49, 9-Bromo-N-((4,6-dimethyl-2-oxo-1,2-dihydropyridin-3-yl)methyl)-2-methyl-2,3,4,5-tetrahydrobenzo[b]oxepine-7-carboxamide] is over 1000 nM.
Then `Cc1cc(C)c(CNC(=O)c2cc3c(c(-c4ccc(CN5CCOCC5)cc4)c2)OC(C)CCC3)c(=O)[nH]1` (stereo not shown) [Example 50, N-((4,6-Dimethyl-2-oxo-1,2-dihydropyridin-3-yl)methyl)-2-methyl-9-(4-(morpholinomethyl)phenyl)-2,3,4,5-tetrahydrobenzo[b]oxepine-7-carboxamide], with over 1000 nM.
As to `Cc1cc(C)c(CNC(=O)c2cc3c(c(-c4ccc(N5CCNCC5)nc4)c2)OC(C)CCC3)c(=O)[nH]1` (stereo not shown) [Example 51, N-((4,6-Dimethyl-2-oxo-1,2-dihydropyridin-3-yl)methyl)-2-methyl-9-(6-(piperazin-1-yl)pyridin-3-yl)-2,3,4,5-tetrahydrobenzo[b]oxepine-7-carboxamide], the half-maximal inhibitory concentration (IC50) is over 1000 nM.
In the case of `COc1ccc(-c2cc(C(=O)NCc3c(C)cc(C)[nH]c3=O)cc3c2OC(C)CCC3)cn1` (stereo not shown) [Example 52, N-((4,6-Dimethyl-2-oxo-1,2-dihydropyridin-3-yl)methyl)-9-(6-methoxypyridin-3-yl)-2-methyl-2,3,4,5-tetrahydrobenzo[b]oxepine-7-carboxamide], the IC50 is over 1000 nM.
Turning to `Cc1cc(C)c(CNC(=O)c2cc(Br)c3c(c2)CCC(C)CO3)c(=O)[nH]1` (stereo not shown) [Example 53, 9-Bromo-N-((4,6-dimethyl-2-oxo-1,2-dihydropyridin-3-yl)methyl)-3-methyl-2,3,4,5-tetrahydrobenzo[b]oxepine-7-carboxamide], the IC50 was over 1000 nM.
In the case of `COc1ccc(-c2cc(C(=O)NCc3c(C)cc(C)[nH]c3=O)cc3c2OCC(C)CC3)cn1` (stereo not shown) [Example 54, N-((4,6-dimethyl-2-oxo-1,2-dihydropyridin-3-yl)methyl)-9-(6-methoxypyridin-3-yl)-3-methyl-2,3,4,5-tetrahydrobenzo[b]oxepine-7-carboxamide], the IC50 was over 1000 nM.
Then `Cc1cc(C)c(CNC(=O)c2cc3c(c(-c4ccc(N5CCNCC5)nc4)c2)OCC(C)CC3)c(=O)[nH]1` (stereo not shown) [Example 55, N-((4,6-Dimethyl-2-oxo-1,2-dihydropyridin-3-yl)methyl)-3-methyl-9-(6-(piperazin-1-yl)pyridin-3-yl)-2,3,4,5-tetrahydrobenzo[b]oxepine-7-carboxamide], with over 1000 nM.
